Test results published in patent publication US12228568B2, “Redox-labile fluorescent probes and their surface immobilization methods for the detection of metabolites” (The Regents of the University of California, priority 2018, dated 2025).
Where a SMILES comes first, the peptide text is derived from it. The star is where a group is joined. Biotin = O=C1N[C@H]2[C@H](CS[C@H]2CCCCC(=O)*)N1; X1 = O=C(c1c(O)ccc2c1oc1cc(=O)ccc-1[n+]2[O-])*

How the values were obtained:
[1] = Surface-based lactate assay on immobilized resazurin probes (coupled LDH/diaphorase reactions); type: biochemical; details: surface-immobilized probe; sodium lactate, NAD+, LDH and diaphorase
Description: We then evaluated the BRz and APRz probes for their performance in lactate detection experiments. BRz was immobilized onto the surface through ssDNA-streptavidin conjugates. Similarly, dibenzocyclooctyne-modified ssDNA enabled surface grafting of APRz molecules (FIG. 3, panel a).^[10] The resazurin-modified surfaces were exposed to a solution containing a mixture of sodium lactate, nicotinamide adenine dinucleotide (NAD+), lactate dehydrogenase (LDH) and diaphorase. In this case, the enzyme reaction cascade shown in FIG. 1, panel a translates the lactate quantity to fluorescence readouts.
A 16-well PDMS slab was placed onto a microscope glass slide, on which single strand DNA oligomers are patterned in 20 μm stripes. The volume of each well is 50 μL and it is equipped with at least eight sets of DNA barcode strips. […]
Subsequently, each well was washed with PBST for three times. At this stage, the APRz probe was immobilized to the surface and ready to use.
To obtain the standard curve for lactate quantification, 20 μL of NAD+ solution (1 mM in PBST), 1 μL of LDH solution (1 kU in ammonium sulfate buffer), 1 μL of diaphorase solution (1 kU/mL in PBS) and 20 μL of lactate solution (various concentrations in PBST) was added to each well and the device was incubated at room temperature for one hour. […] The surface fluorescence intensity was then measured by a microscanner. […]

[2] = Stability of modified resazurin probes; type: physicochemical; details: solution phase, 8 μM in PBS
Description: FIG. 7. Synthesis of the extended CRz bearing an aliphatic carboxyl group (CPRz). This carboxyl group could be readily converted to an NHS ester using standard coupling procedures. However, the ss-DNA-CPRz was not stable, and went through spontaneous self-reduction even at −20° C.
FIG. 10. Stability of Biotin-modified CRz (BRz) in solution phase. 8 μM in PBS. At 6 hrs, all the BPRz was reduced through adding 10 units of Diaphorase and 1 mM of NADH in PBS.
FIG. 11. Stability of the APRz probe (8 μM in PBS). The “reduced” signal was obtained through adding 10 units of Diaphorase and 1 mM of NADH to the APRz solution followed by a 1 hour incubation.
In order to be adapted to the SCBC platform, the probe immobilization process should be compatible with the single-stand DNA hybridization process.^[5] However, the N-oxide group on CRz confers strong redox lability. Consequently, the attempt of conjugating the amine-modified CRz to a single strand DNA (ssDNA) was unsuccessful.

[3] = Interference of intracellular reducing agents with APRz detection; type: biochemical; details: Glutamine 6 mM; Glucose 6 mM; Ascorbate 100 nM; Glutathione 6 mM; APRz 8 µM in PBS
Description: FIG. 15. Comparison of the reaction kinetics using different reducing agents.
A potential concern of employing the enzymatic mechanism for lactate quantitation was the specificity of the method. The complex intracellular contents always pose strong challenges on such redox-based methods. […] In order to evaluate the combined interference from all intracellular components, we further performed validation using GBM39 cell lysates.

[4] = tested on: GBM39 cells; test: SCBC single cell metabolic/proteomic measurements; type: cell-based, human; details: for glucose uptake / lactate production: erlotinib 1 μM 24 h or oligomycin A 0.1 μM 3 h vs DMSO
Description: We then sought to adapt the lactate assay for single cell level quantitation. The surface-based lactate assay was incorporated onto the SCBC platform, which consisted of a two-layer elastomer microfluidics device coupled to a DNA barcoded glass slide.^[5, 7] The device contained 384 programmable microchambers where cells were loaded and lysed for analysis. Each microchamber was equipped with a set of DNA barcode stripes, which served as a scaffold for multiplex measurements (FIG. 18). We quantified glucose uptake, lactate production and a panel of signaling proteins from GBM39 single cells. GBM39 is a human glioblastoma cell line that harbors a mutated form of the epidermal growth factor receptor (EGFR), which drives cell proliferation. Cells were treated with 1 μM of erlotinib (EGFR inhibitor), 0.1 μM of oligomycin A (ATPase inhibitor) or DMSO (control) before analysis.
GBM 39 primary neurospheres were provided by Prof. C. David James (UCSF, San Francisco, U.S.A.) and HK301 cells were provided by Prof. Harley Kornblum (UCLA, Los Angeles, U.S.A). Cells were cultured in Dulbecco's Modified Eagle Media Nutrient Mix F-12 (DMEM/F12, Thermo) supplemented with B27 (Invitrogen), Glutamax (Thermo), heparin (1 μg/mL, Sigma), Epidermal Growth Factor (EGF, […], Sigma), Fibroblast Growth Factor (FGF, 20 ng/mL, Sigma) and 100 U/mL of penicillin and streptomycin (Thermo) in a humidified 5% CO2 (v/v) incubator at 37° C. […] For the erlotinib group, the GBM 39 cells were treated for 24 h while for the oligomycin group, the cells were treated for 3 h. Afterwards, the treated cells were processed for tests.
For SCBC measurements, the as-prepared single cells were resuspended in warm media with 10 μg/mL of Gluc-Bio at 1 M cells/mL. After incubated at 37° C. for 30 min and washed with cold PBS for 3 times, the collected cell pellet was resuspended in serum-free, biotin-free media which contained 25 U/mL lactate dehydrogenase (LDH) and 25 U/mL diaphorase. The concentration of the as-prepared single cell suspension was 1 M cells/mL.
The single cell barcode chips (SCBC) were fabricated according to well-established procedures. DNA-encoded antibody library (DEAL) was grafted onto the surface through DNA hybridization to afford capture antibody arrays. The DNA-APRz conjugate can also be incorporated onto the surface barcode through the same procedure. […] 2) the lysis buffer was prepared to contain 2 mM of NAD^+.
The SCBC readouts from the microchambers with single cells were collected to form a data table. Each row of the table corresponds to a measurement of a panel of functional proteins from a single cell and each column contains digitized fluorescence intensities that provide readout of the levels of each of the assayed proteins. […]. Protein-protein Spearman's rank correlation coefficients were calculated. Bonferroni corrected p-value was used to define the statistical significance level for the entire panel and only those significant correlations were shown in the networks. Analyte-analyte correlation networks were generated by running the calculation through all the analyte pairs in panel.

Row | SMILES | fluorescence increase within the assay duration [3] | reaction kinetics of APRz reduction by reducing agent [3] | glucose uptake [4] | lactate production [4] | further results
1 | NCCCC[C@H](NC(=O)CNC(=O)CCCC[C@@H]1SC[C@@H]2NC(=O)N[C@@H]21)C(=O)NCC(=O)N[C@@H](CCCCN)C(=O)NCC(=O)N[C@@H](CCCCN)C(=O)NCC(=O)N[C@@H](CCCCNC(=O)c1c(O)ccc2c1oc1cc(=O)ccc-1[n+]2[O-])C(=O)NCC(N)=O [BRz] (Biotin-GKGKGKGK(X1)G-NH2) | – | – | – | – | increase of fluorescence intensity after lactate conversion [1]: unsatisfactory fluorescence increase; stability of probe [2]: superior stability
2 | O=C1O[C@H]([C@@H](O)CO)C(O)=C1O [ascorbic acid] | insignificant fluorescence increase | very slow reaction kinetics | – | – | –
3 | C#Cc1cccc(Nc2ncnc3cc(OCCOC)c(OCCOC)cc23)c1 [erlotinib] | – | – | dramatically decreased | dramatically decreased | phosphorylation levels on EGFR as well as downstream signaling proteins ([4]; erlotinib 1 μM 24 h vs DMSO): significant down regulation
4 | N[C@@H](CCC(=O)N[C@@H](CS)C(=O)NCC(=O)O)C(=O)O [glutathione] | insignificant fluorescence increase | very slow reaction kinetics | – | – | –
5 | CC[C@H]1/C=C/C=C/C[C@@H](C)[C@H](O)[C@@](C)(O)C(=O)[C@@H](C)[C@H](O)[C@@H](C)C(=O)[C@@H](C)[C@H](O)[C@@H](C)/C=C/C(=O)O[C@@H]2[C@H](C)[C@H](CC1)O[C@]1(CC[C@H](C)[C@H](C[C@@H](C)O)O1)[C@H]2C [oligomycin, oligomycin A] | – | – | slightly higher | significantly increased | phosphoproteins downstream of the EGFR signaling pathway ([4]; oligomycin A 0.1 μM 3 h vs DMSO): suppress
